Patent US12459899B2, “Isoquinolinone derivatives, method for preparing the same, and pharmaceutical composition for preventing or treating poly(ADP-ribose) polymerase-1-related diseases, comprising the same as active ingredient” (DIGMBIO. INC., priority 2019, dated 2025)
Counter-ions that a name gives are not always drawn.

molecular target: PARP-1 (poly[ADP-ribose] polymerase 1) enzyme (Homo sapiens (Human), UniProt P09874); test: PARP-1 (poly[ADP-ribose] polymerase 1) enzyme inhibitory ability, Trevigen assay kit; assay type: biochemical; settings: 1 nM compound; read-out: PAR P-1 Inhibitory ability at 1 nM
Sequence (P09874 whole entry): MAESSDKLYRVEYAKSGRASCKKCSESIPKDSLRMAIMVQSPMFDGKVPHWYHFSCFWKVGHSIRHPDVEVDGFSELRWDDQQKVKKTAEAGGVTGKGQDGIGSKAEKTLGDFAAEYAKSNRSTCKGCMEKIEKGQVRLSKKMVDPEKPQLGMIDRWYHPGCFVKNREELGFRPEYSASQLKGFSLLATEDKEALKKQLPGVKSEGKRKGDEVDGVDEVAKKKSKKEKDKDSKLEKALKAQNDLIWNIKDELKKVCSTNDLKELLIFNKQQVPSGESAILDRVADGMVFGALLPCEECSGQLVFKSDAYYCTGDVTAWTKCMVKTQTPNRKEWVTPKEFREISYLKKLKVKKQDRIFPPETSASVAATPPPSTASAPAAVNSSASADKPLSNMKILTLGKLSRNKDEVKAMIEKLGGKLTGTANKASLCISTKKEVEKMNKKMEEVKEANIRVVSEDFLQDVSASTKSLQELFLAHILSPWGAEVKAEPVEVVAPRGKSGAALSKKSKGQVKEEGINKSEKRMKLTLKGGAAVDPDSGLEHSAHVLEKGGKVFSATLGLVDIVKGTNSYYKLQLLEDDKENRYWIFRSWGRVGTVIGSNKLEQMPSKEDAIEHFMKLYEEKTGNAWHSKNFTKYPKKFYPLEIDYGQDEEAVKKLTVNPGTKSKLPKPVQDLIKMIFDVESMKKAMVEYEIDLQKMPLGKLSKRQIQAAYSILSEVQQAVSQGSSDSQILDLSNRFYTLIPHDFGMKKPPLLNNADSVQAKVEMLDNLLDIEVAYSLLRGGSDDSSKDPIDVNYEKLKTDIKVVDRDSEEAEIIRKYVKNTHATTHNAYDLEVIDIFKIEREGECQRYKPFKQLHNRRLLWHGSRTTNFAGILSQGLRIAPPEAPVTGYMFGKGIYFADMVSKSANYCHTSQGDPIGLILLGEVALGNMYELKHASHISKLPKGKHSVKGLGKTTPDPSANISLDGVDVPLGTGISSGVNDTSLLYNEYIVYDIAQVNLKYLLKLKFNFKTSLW
Procedure, shortened: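 After the 1 hour PARP reaction, wells were washed with PBS containing 0.1% triton X-100 and then PBS. Strep-HRP (50 μL) was bound for 1 hour, wells washed again, and 50 μL of TACS-sapphire substrate developed 15 minutes in the dark. Reactions were stopped with 50 μL of 5% phosphoric acid and absorbance read at 450 nm on a Victor3 reader.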

Row | SMILES | inhibition at 0.001 µM
1 | N#Cc1ccccc1N1CCN(C(=O)CCc2cc3cccc(F)c3c(=O)[nH]2)CC1 [Example 74, 2-(4-(3-(8-fluoro-1-oxo-1,2-dihydroisoquinolin-3-yl)propanoyl)piperazin-1-yl)benzonitrile] | < 50%
2 | Cc1ccc(F)c2c(=O)[nH]c(CCC(=O)N3CCN(c4ccc(C#N)nc4)CC3)cc12 [Example 124, 5-(4-(3-(8-fluoro-5-methyl-1-oxo-1,2-dihydroisoquinolin-3-yl)propanoyl)piperazin-1-yl)picolinonitrile] | < 50%
3 | Cc1ccc(F)c2c(=O)[nH]c(CCC(=O)N3CCN(c4ccc(F)c(C#N)c4)CC3)cc12 [Example 135, 2-fluoro-5-(4-(3-(8-fluoro-5-methyl-1-oxo-1,2-dihydroisoquinolin-3-yl)propanoyl)piperazin-1-yl)benzonitrile] | < 50%
4 | N#Cc1ccc(NC2CCN(CCCc3cc4ncccc4c(=O)[nH]3)CC2)cc1 [Example 250, 4-((1-(3-(5-oxo-5,6-dihydro-1,6-naphthyridin-7-yl)propyl)piperidin-4-yl)amino)benzonitrile] | < 50%
5 | N#Cc1ccc(N2CCN(C(=O)CCc3cc4cccc(F)c4c(=O)[nH]3)CC2)c(F)c1 [Example 73, 3-fluoro-4-(4-(3-(8-fluoro-1-oxo-1,2-dihydroisoquinolin-3-yl)propanoyl)piperazin-1-yl)benzonitrile] | < 50%
6 | Cc1ccc(F)c2c(=O)[nH]c(CCC(=O)N3CCN(c4ccc(C#N)cn4)CC3)cc12 [Example 123, 6-(4-(3-(8-fluoro-5-methyl-1-oxo-1,2-dihydroisoquinolin-3-yl)propanoyl)piperazin-1-yl)nicotinonitrile] | < 50%
7 | N#Cc1ccc(C2=CCN(C(=O)CCc3cc4ncccc4c(=O)[nH]3)CC2)cc1 [Example 245, 4-(1-(3-(5-oxo-5,6-dihydro-1,6-naphthyridin-7-yl)propanoyl)-1,2,3,6-tetrahydropyridin-4-yl)benzonitrile] | < 50%
8 | Cc1ccc(F)c2c(=O)[nH]c(CCC(=O)N3CCN(C(=O)C4CCCO4)CC3)cc12 (centres unmarked) [Example 191, 8-fluoro-5-methyl-3-(3-oxo-3-(4-(tetrahydrofuran-2-carbonyl)piperazin-1-yl)propyl)isoquinolin-1(2H)-one] | < 50%
9 | N#Cc1ccc(F)cc1N1CCN(C(=O)CCc2cc3ccc(F)cc3c(=O)[nH]2)CC1 [Example 108, 4-fluoro-2-(4-(3-(7-fluoro-1-oxo-1,2-dihydroisoquinolin-3-yl)propanoyl)piperazin-1-yl)benzonitrile] | < 50%
10 | O=C(CCc1cc2cccc(F)c2c(=O)[nH]1)N1CC=C(c2cccc(F)c2)CC1 [Example 83, 8-fluoro-3-(3-(4-(3-fluorophenyl)-3,6-dihydropyridin-1(2H)-yl)-3-oxopropyl)isoquinolin-1(2H)-one] | < 50%
11 | Cc1ccc(F)c2c(=O)[nH]c(CCCN3CC[C@@H](c4ccc(F)cc4)C3)cc12 [Example 32, (S)-8-fluoro-3-(3-(3-(4-fluorophenyl)pyrrolidin-1-yl)propyl)-5-methylisoquinolin-1(2H)-one] | < 50%
12 | Cc1ccc(F)c2c(=O)[nH]c(CCC(=O)N3CCC(Nc4ccc(C(F)(F)F)cc4)CC3)cc12 [Example 266, 8-fluoro-5-methyl-3-(3-oxo-3-(4-((4-(trifluoromethyl)phenyl)amino)piperidin-1-yl)propyl)isoquinolin-1(2H)-one] | < 50%
13 | N#Cc1ccccc1N1CCN(C(=O)CCc2cc3ccc(F)cc3c(=O)[nH]2)CC1 [Example 98, 2-(4-(3-(7-fluoro-1-oxo-1,2-dihydroisoquinolin-3-yl)propanoyl)piperazin-1-yl)benzonitrile] | < 50%
14 | O=c1[nH]c(CCCN2CCN(c3cccc([N+](=O)[O-])c3)CC2)cc2ccc(F)cc12 [Example 11, 7-fluoro-3-(3-(4-(3-nitrophenyl)piperazin-1-yl)propyl)isoquinolin-1(2H)-one] | < 50%
15 | Cc1cc(F)cc2c(=O)[nH]c(CCC(=O)N3CC=C(c4ccnc(F)c4)CC3)cc12 [Example 168, 7-fluoro-3-(3-(2′-fluoro-3,6-dihydro-[4,4′-bipyridine]-1(2H)-yl)-3-oxopropyl)-5-methylisoquinolin-1(2H)-one] | < 50%
16 | Cc1ccc(F)c2c(=O)[nH]c(CCC(=O)N3CCN(C(=O)C4CC4)CC3)cc12 [Example 183, 3-(3-(4-(cyclopropanecarbonyl)piperazin-1-yl)-3-oxopropyl)-8-fluoro-5-methylisoquinolin-1(2H)-one] | < 50%
17 | Cc1cc(F)cc2c(=O)[nH]c(CCC(=O)N3CCN(C(=O)C4CCCC4)CC3)cc12 [Example 177, 3-(3-(4-(cyclopentanecarbonyl)piperazin-1-yl)-3-oxopropyl)-7-fluoro-5-methylisoquinolin-1(2H)-one] | < 50%

Row | SMILES | inhibition at 0.001 µM
18 | Cc1ccc(F)c2c(=O)[nH]c(CCC(=O)N3CCC(Oc4ccc(C#N)cc4)CC3)cc12 [Example 261, 4-((1-(3-(8-fluoro-5-methyl-1-oxo-1,2-dihydroisoquinolin-3-yl)propanoyl)piperidin-4-yl)oxy)benzonitrile] | < 50%
19 | N#Cc1ccc(OC2CC3CCC(C2)N3C(=O)CCc2cc3cccc(F)c3c(=O)[nH]2)cc1 (centres unmarked) [Example 274, 4-((8-(3-(8-fluoro-1-oxo-1,2-dihydroisoquinolin-3-yl)propanoyl)-8-azabicyclo[3.2.1]octan-3-yl)oxy)benzonitrile] | < 50%
20 | Cc1cc(F)cc2c(=O)[nH]c(CCC(=O)N3CCN(c4ccc(C#N)cn4)CC3)cc12 [Example 152, 6-(4-(3-(7-fluoro-5-methyl-1-oxo-1,2-dihydroisoquinolin-3-yl)propanoyl)piperazin-1-yl)nicotinonitrile] | < 50%
21 | O=c1[nH]c(CCCN2CCC(Nc3ccc(C(F)(F)F)cc3)CC2)cc2ncccc12 [Example 253, 7-(3-(4-((4-(trifluoromethyl)phenyl)amino)piperidin-1-yl)propyl)-1,6-naphthyridin-5(6H)-one] | < 50%
22 | Cc1ccc(F)c2c(=O)[nH]c(CCC(=O)N3CCN(C(=O)[C@H](C)N)CC3)cc12 [Example 194, 3-(3-(4-(L-alanyl)piperazin-1-yl)-3-oxopropyl)-8-fluoro-5-methylisoquinolin-1(2H)-one hydrochloride] | < 50%
23 | O=c1[nH]c(CCCN2CC=C(c3cccc(F)c3)CC2)cc2ncccc12 [Example 238, 7-(3-(4-(3-fluorophenyl)-3,6-dihydropyridin-1(2H)-yl)propyl)-1,6-naphthyridin-5(6H)-one] | < 50%
24 | Cc1cc(F)cc2c(=O)[nH]c(CCCN3CCN(c4ccc(C#N)nc4)CC3)cc12 [Example 35, 5-(4-(3-(7-fluoro-5-methyl-1-oxo-1,2-dihydroisoquinolin-3-yl)propyl)piperazin-1-yl)picolinonitrile] | < 50%
25 | Cc1cc(F)cc2c(=O)[nH]c(CCC(=O)N3CCN(c4cccc(F)c4)CC3)cc12 [Example 167, 7-fluoro-3-(3-(4-(3-fluorophenyl)piperazin-1-yl)-3-oxopropyl)-5-methylisoquinolin-1(2H)-one] | < 50%
26 | Cc1ccc(F)c2c(=O)[nH]c(CCCN3CC=C(c4ccc(C#N)cc4)CC3)cc12 [Example 54, 4-(1-(3-(8-fluoro-5-methyl-1-oxo-1,2-dihydroisoquinolin-3-yl)propyl)-1,2,3,6-tetrahydropyridin-4-yl)benzonitrile] | < 50%
27 | Cc1ccc(F)c2c(=O)[nH]c(CCC(=O)N3CC=C(c4ccc(C#N)c(F)c4)CC3)cc12 [Example 141, 2-fluoro-4-(1-(3-(8-fluoro-5-methyl-1-oxo-1,2-dihydroisoquinolin-3-yl)propanoyl)-1,2,3,6-tetrahydropyridin-4-yl)benzonitrile] | < 50%
28 | Cc1cc(F)cc2c(=O)[nH]c(CCC(=O)N3CC=C(c4ccc(F)cc4C#N)CC3)cc12 [Example 161, 5-fluoro-2-(1-(3-(7-fluoro-5-methyl-1-oxo-1,2-dihydroisoquinolin-3-yl)propanoyl)-1,2,3,6-tetrahydropyridin-4-yl)benzonitrile] | < 50%
29 | Cc1ccc(F)c2c(=O)[nH]c(CCC(=O)N3C4CCC3CN(c3ccc(F)nc3)C4)cc12 [Example 211, 8-fluoro-3-(3-(3-(6-fluoropyridin-3-yl)-3,8-diazabicyclo[3.2.1]octan-8-yl)-3-oxopropyl)-5-methylisoquinolin-1(2H)-one] | < 50%
30 | COC(=O)c1ccc(NC2CCN(C(=O)CCc3cc4c(C)ccc(F)c4c(=O)[nH]3)CC2)cc1 [Example 268, methyl 4-((1-(3-(8-fluoro-5-methyl-1-oxo-1,2-dihydroisoquinolin-3-yl)propanoyl)piperidin-4-yl)amino)benzoate] | < 50%
31 | O=C(CCc1cc2ccc(F)cc2c(=O)[nH]1)N1CC[C@H](c2ccc(F)cc2)C1 [Example 116, (R)-7-fluoro-3-(3-(3-(4-fluorophenyl)pyrrolidin-1-yl)-3-oxopropyl)isoquinolin-1(2H)-one] | < 50%
32 | O=c1[nH]c(CCCN2CCN(c3ccnc(F)c3)CC2)cc2ncccc12 [Example 227, 7-(3-(4-(2-fluoropyridin-4-yl)piperazin-1-yl)propyl)-1,6-naphthyridin-5(6H)-one] | < 50%
33 | Cc1ccc(F)c2c(=O)[nH]c(CCC(=O)N3CCC(O)CC3)cc12 [Example 270, 8-fluoro-3-(3-(4-hydroxypiperidin-1-yl)-3-oxopropyl)-5-methylisoquinolin-1(2H)-one] | < 50%
34 | N#Cc1ccc(NC2CCN(CCCc3cc4ccc(F)cc4c(=O)[nH]3)CC2)cc1 [Example 249, 4-((1-(3-(7-fluoro-1-oxo-1,2-dihydroisoquinolin-3-yl)propyl)piperidin-4-yl)amino)benzonitrile] | < 50%

same assay, conditions: PARP-1 enzyme activity

Row | SMILES | IC50
35 | Cc1ccc(F)c2c(=O)[nH]c(CCC(=O)N3CCN(C(=O)C4CC4)CC3)cc12 [Example 183, 3-(3-(4-(cyclopropanecarbonyl)piperazin-1-yl)-3-oxopropyl)-8-fluoro-5-methylisoquinolin-1(2H)-one] | 14.7 nM
36 | Cc1cc(F)cc2c(=O)[nH]c(CCC(=O)N3CCN(c4ccc(C#N)cn4)CC3)cc12 [Example 152, 6-(4-(3-(7-fluoro-5-methyl-1-oxo-1,2-dihydroisoquinolin-3-yl)propanoyl)piperazin-1-yl)nicotinonitrile] | 0.85 nM
37 | Cc1ccc(F)c2c(=O)[nH]c(CCCN3CC=C(c4ccc(C#N)cc4)CC3)cc12 [Example 54, 4-(1-(3-(8-fluoro-5-methyl-1-oxo-1,2-dihydroisoquinolin-3-yl)propyl)-1,2,3,6-tetrahydropyridin-4-yl)benzonitrile] | 1.42 nM
38 | COC(=O)c1ccc(NC2CCN(C(=O)CCc3cc4c(C)ccc(F)c4c(=O)[nH]3)CC2)cc1 [Example 268, methyl 4-((1-(3-(8-fluoro-5-methyl-1-oxo-1,2-dihydroisoquinolin-3-yl)propanoyl)piperidin-4-yl)amino)benzoate] | 8.59 nM
